Source: article PMC12036814 (Angewandte Chemie (International Ed. in English), 2025)
Read-outs that look alike come from different tables or passages of the source.

Assays:
Assay in all cases: Thermal protein profiling (TPP) in intact HEK293 cells
Format in all cases: cell-based
Conditions in all cases: 1 h
FAM171A2 = biological target: T1, FAM171A2 (Homo sapiens, UniProt A8MVW0)
T1 construct: endogenous in cells; host or cells: HEK293
Procedure: (§1) incubated in a thermoshaker (600 rpm, 16 h, 37 °C). The digest was stopped by adding 10 μL formic
(§2) acid (FA) and vortexing followed by centrifugation (12,000 ×g, 3 min, room temperature). 50 mg
(§3) SepPak C18 columns (Waters, Milford, USA, Cat# WAT054960) were equilibrated by gravity flow two
(§4) times with 1 mL acetonitrile and three times with 1 mL aqueous 0.1% trifluoroacetic acid (TFA) solution.
(§5) Subsequently, the samples were loaded by gravity flow, washed three times with 1 mL aqueous 0.1%
(§6) TFA solution and once with 0.5 mL aqueous 0.5% formic acid (F A) solution. Elution of peptides into
(§7) new 2.0 mL Protein LoBind Eppendorf tubes was performed by two times addition of 250 μL elution
(§8) buffer (80% acetonitrile, 0.5% FA) by gravity flow followed by 250 μL elution buffer by vacuum flow
(§9) until all liquid was eluted from the column. The eluates were lyophilized. Before MS measurement the
(§10) (brief centrifugation after each step).
(§11) Thermal protein profiling (TPP)
(§12) The experiment was performed similarly to TPP-TR experiments described by Franken et al. with minor
(§13) modifications.5 HEK293 cells were grown in 8 T175 flasks to approx. 80-90% confluency. Per replicate
(§14) volume of 0.1 N HCl as vehicle control. Per condition two replicates were used, leading to a total of 8
(§15) T175 flasks. The cells were washed with PBS, detached with accutase, the two flask per replicate
(§16) condition combined and the cells pelletized (500 ×g, 3 min, r.t.). The medium was removed and each
(§17) pellet (Cipro #1, Cipro #2, Ctrl. #1, Ctrl #2) washed twice with cold PBS. Each pellet was resuspended
(§18) depending on the sample. The cell suspension of each sample was distributed into 10 PCR tubes
(§19) (100 µL per tube), resulting in 10 stripes á 4 tubes (2×2 conditions, 10 temperature points). The PCR
(§20) tubes were subjected to the temperature gradient using a PCR cycler.
(§21) limitations, two separate programs had to be run to cover the desired temperature range (see
(§22) Table S4). The PCR tubes were heat-treated according to the two programs for 3 min and directly snap
(§23) frozen in liquid nitrogen.
(§24) manufacturer instructions.

SMG7 = biological target: T2, SMG7 (Homo sapiens, UniProt Q92540)
T2 construct: endogenous in cells; host or cells: HEK293
T2 sequence (Q92540 1-1137): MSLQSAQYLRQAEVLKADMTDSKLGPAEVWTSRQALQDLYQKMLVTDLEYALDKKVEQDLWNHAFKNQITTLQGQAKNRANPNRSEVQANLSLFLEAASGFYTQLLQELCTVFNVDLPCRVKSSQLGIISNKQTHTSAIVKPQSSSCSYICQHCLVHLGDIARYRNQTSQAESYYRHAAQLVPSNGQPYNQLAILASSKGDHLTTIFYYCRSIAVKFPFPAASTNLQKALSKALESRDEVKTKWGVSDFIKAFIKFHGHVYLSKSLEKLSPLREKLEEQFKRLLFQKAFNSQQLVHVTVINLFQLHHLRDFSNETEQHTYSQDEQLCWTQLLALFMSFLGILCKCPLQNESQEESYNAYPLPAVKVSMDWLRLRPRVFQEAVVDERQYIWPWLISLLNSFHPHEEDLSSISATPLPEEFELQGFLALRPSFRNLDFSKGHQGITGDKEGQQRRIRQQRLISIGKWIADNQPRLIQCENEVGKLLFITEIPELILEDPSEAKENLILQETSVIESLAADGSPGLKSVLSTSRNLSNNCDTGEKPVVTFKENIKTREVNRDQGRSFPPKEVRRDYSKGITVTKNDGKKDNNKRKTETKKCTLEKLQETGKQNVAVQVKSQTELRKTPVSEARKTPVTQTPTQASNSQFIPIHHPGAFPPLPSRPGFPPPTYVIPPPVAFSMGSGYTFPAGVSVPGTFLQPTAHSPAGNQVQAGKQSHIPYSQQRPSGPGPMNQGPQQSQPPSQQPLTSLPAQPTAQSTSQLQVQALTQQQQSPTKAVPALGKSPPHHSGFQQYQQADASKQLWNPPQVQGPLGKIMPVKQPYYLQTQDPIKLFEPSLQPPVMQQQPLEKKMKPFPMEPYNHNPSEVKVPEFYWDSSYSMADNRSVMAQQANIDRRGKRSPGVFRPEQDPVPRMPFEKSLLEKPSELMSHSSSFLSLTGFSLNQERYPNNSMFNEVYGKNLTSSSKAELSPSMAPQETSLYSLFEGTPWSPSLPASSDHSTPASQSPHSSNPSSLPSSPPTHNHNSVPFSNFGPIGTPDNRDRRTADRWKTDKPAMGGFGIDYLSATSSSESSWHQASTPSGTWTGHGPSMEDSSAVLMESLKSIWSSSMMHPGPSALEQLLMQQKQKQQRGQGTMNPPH
Procedure: as §1, §2, §3, §4, §5, §6, §7, §8, §9, §10, §11, §12, §13, §14, §15, §16, §17, §18, §19, §20, §21, §22, §23, §24

MAIP1 = biological target: T3, MAIP1 (Homo sapiens, UniProt Q8WWC4)
T3 construct: endogenous in cells; host or cells: HEK293
T3 sequence (Q8WWC4 97-291): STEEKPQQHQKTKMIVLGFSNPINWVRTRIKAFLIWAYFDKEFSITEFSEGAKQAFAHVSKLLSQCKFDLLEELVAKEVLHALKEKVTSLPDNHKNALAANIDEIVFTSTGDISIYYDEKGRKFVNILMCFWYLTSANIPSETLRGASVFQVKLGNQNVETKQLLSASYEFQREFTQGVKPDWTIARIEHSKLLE
Procedure: as §1, §2, §3, §4, §5, §6, §7, §8, §9, §10, §11, §12, §13, §14, §15, §16, §17, §18, §19, §20, §21, §22, §23, §24

TRIM26 = biological target: T4, TRIM26 (Homo sapiens, UniProt Q12899)
T4 construct: endogenous in cells; host or cells: HEK293
T4 sequence (Q12899 1-539): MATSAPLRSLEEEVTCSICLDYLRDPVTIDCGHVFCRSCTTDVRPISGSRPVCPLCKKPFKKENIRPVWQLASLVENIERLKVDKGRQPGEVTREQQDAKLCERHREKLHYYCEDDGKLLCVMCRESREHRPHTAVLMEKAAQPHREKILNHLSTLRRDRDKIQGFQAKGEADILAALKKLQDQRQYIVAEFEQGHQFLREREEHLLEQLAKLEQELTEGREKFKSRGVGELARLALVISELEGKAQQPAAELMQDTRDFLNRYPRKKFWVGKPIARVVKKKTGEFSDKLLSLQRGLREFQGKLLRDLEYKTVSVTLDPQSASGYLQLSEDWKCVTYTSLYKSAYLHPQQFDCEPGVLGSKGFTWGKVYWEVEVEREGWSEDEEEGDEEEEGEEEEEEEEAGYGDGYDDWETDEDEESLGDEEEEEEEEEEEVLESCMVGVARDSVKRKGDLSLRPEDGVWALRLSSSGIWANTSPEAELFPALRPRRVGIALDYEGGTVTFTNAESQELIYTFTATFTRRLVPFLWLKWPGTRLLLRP
Procedure: as §1, §2, §3, §4, §5, §6, §7, §8, §9, §10, §11, §12, §13, §14, §15, §16, §17, §18, §19, §20, §21, §22, §23, §24

## O=C(O)c1cn(C2CC2)c2cc(N3CCNCC3)c(F)cc2c1=O [Ciprofloxacin]
FAM171A2; read-out: ΔTm Rep. 1
  ΔTm at 70 µM: 5.82 °C
FAM171A2; read-out: ΔTm Rep. 2
  ΔTm at 70 µM: 3.92 °C
SMG7; read-out: ΔTm Rep. 1
  ΔTm at 70 µM: 1.67 °C
SMG7; read-out: ΔTm Rep. 2
  ΔTm at 70 µM: 3.28 °C
MAIP1; read-out: ΔTm Rep. 1
  ΔTm at 70 µM: 2.28 °C
MAIP1; read-out: ΔTm Rep. 2
  ΔTm at 70 µM: 3.73 °C
TRIM26; read-out: ΔTm Rep. 1
  ΔTm at 70 µM: 3.54 °C
TRIM26; read-out: ΔTm Rep. 2
  ΔTm at 70 µM: 3.88 °C
